“Also recorded” adds a separate entry of the source.
Tests used:
MMP-1 = target: T1, MMP-1 (Homo sapiens, UniProt P03956); settings: cited from earlier work
T1 sequence (P03956 100-469): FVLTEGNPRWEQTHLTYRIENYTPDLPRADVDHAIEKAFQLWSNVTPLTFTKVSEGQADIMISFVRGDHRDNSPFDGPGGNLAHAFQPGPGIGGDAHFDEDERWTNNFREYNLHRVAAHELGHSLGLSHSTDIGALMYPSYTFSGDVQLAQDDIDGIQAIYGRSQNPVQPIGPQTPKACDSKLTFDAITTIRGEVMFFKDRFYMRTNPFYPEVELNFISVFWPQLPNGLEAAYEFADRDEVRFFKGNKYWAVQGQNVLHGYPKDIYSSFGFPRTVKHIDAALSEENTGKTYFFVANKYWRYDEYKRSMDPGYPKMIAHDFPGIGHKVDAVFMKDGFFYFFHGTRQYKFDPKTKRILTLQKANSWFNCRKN

MMP-3 = MMP-3 (Homo sapiens, UniProt P08254); settings: cited from earlier work
HUVEC and HLF coculture = assay: MVN formation by HUVEC and HLF coculture under IF with MMP-2 inhibitor; type: cell-based, human; settings: 20 uM
Procedure: FIGS. 10A-10D are graphs showing that IF enhances formation of fully perfusable microvascular network made by HUVEC and HLF. FIGS. 10A-10D are Statistical analysis of morphological parameters and perfusability of perfusable vessels cultured with various concentration of ARP-100. n=6 devices for control, n=3 devices for each inhibitor treated group. Significance was calculated with two sample t tests. ***P<0.01.
(§1) Green fluorescent protein (“GFP”) tagged human umbilical vein endothelial cells (HUVECs) and human lung fibroblasts (HLFs) were seeded in a 7:1 ratio for all static and IF experiments. Devices were imaged under confocal microscopy with dextran dye perfused at day 6, when MVN were interconnected and perfusable. Devices were seeded with HUVECs and HLFs in combination and HUVECs alone.
(§2) Perfusability is a crucial factor when evaluating the quality of engineered MVN, since the major function of vessels is to transport nutrients, oxygen, metabolic wastes and various cells through perfusable lumens. Perfusability is measured as the ratio between dextran dye cover area (perfusable vessels) and GFP HUVEC cover area (all the vessels). […] To better interpret perfusability, MVN with at least one perfusable vessels across the gel region is defined as partially perfusable, and MVN with perfusability over 80% is defined as fully perfusable.

MMP-2 = target: T2, MMP-2 (Homo sapiens, UniProt P08253); settings: cited from earlier work
T2 sequence (P08253 110-660): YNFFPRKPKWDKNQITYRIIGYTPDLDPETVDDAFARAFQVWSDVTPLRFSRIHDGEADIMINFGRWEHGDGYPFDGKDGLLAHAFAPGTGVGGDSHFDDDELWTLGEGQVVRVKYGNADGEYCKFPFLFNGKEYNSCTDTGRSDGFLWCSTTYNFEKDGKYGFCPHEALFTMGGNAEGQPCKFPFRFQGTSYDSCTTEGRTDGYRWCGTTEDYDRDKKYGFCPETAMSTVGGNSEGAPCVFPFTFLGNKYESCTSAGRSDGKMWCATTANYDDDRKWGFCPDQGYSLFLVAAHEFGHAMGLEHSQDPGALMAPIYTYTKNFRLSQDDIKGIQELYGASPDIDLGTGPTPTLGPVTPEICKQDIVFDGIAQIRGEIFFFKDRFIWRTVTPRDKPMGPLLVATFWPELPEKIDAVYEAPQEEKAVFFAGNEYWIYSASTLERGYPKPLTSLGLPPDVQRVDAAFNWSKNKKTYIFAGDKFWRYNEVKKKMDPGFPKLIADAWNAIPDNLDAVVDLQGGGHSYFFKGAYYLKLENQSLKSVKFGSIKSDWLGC

HUVEC monoculture = assay: Inhibitory tests on MVN formation by HUVEC monoculture in fibrin gel under IF, single channel device; type: cell-based, human
Procedure: (§3) FIGS. 8A-8E are graphs showing that IF enhances the vasculogenesis ability of EC through upregulation of MMP-2. MVN was formed statically with HUVEC monoculture in 3-channel device MVN was formed with HUVEC monoculture in single channel device under IF induced by 10 mm H2O pressure difference, or with various inhibitors added: 100 μM PAI-1, 200 U/ml aprotinin, 50 μM marimast, 50 μM NSC 405020, 100 μg/ml MMP-1 neutralizing antibody and 100 μg/ml control antibody. Samples were pooled at day 3. n=3 FIGS. 8A-8D are graphs showing the statistical analysis of morphological parameters and perfusability of perfusable vessels cultured with various concentration of ARP-100. IF induced by 10 mm H2O pressure difference were applied to all cases. n=5 devices for control, n=3 devices for each inhibitor treated group. Significance was calculated with two sample t tests. ***P<0.01. FIG. 8E is a graph of vascular permeability measurements of 40 kDa dextran for perfusable MVNs formed under various conditions. n=3 devices for each group, 3 measurements were performed in each device at different ROIs.
as §1, §2
HUVEC monoculture of the same concentration were also seeded in single channel devices of FIG. 5B and subjected to IF.
Culture media was also supplemented with high concentration (100 uM) plasminogen activator inhibitor-1, which inhibits both uPA and tPA, or aprotinin, which inhibits plasmin.
ARP-100 (IC50 values are 12, 200, 4500, >50000 and >50000 nM for MMP-2, -9, -3, -1, -7, respectively) and NSC 405020 (selective inhibitor of the collagenolytic activity of MT1-MMP without affecting the catalytic activity of cellular MT1-MMP) were tested as specific inhibitors for MMP-2 and MMP-14. 14. High concentrations of anti-MMP-1 neutralizing antibody were used to inhibit MMP-1 activity

[1] = tested on: MVN formed by HUVEC monoculture; assay: Vascular permeability of 40 kDa dextran in perfusable MVN; type: cell-based, human; settings: HUVEC monoculture with 10 μM inhibitor under IF
Procedure: as §3, with “FIG. 8E is a graph of vascular permeability measurements of 40 kDa dextran for perfusable MVNs formed under various conditions. n=3 devices for each group, 3 measurements were performed in each device at different ROIs.” left out
In summary, MVN formed without supporting cells tends to be leakier. Since vascular permeability is a critical aspect of functionality of engineered MVN, vascular permeability of 40 kD dextran was measured and compared under various conditions where perfusable vessels can be robustly formed. […] Moreover, all the measurements were in the order of 10^−8 cm/s, which are quite low for vascular permeability measured using 40 kDa dextran. […]

MMP-7 = target: T3, MMP-7 (Homo sapiens, UniProt P09237); settings: cited from earlier work
T3 sequence (P09237 95-267): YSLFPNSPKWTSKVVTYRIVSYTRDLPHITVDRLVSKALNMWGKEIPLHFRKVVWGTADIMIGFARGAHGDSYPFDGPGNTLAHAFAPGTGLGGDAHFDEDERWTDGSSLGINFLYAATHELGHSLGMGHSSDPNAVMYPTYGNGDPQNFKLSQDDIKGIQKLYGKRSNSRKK

MMP-9 = MMP-9 (Homo sapiens, UniProt P14780); settings: read-out: IC50 for MMP-9; cited from earlier work
[2] = tested on: primary human brain endothelial cells (BECs), brain pericytes, and astrocytes; assay: BBB MVN formation under IF with MMP-2 specific inhibitor; type: cell-based
Procedure: BBB MVN were formed, consisting of primary human brain endothelial cells (BECs), brain pericytes, and astrocytes.
Triculture were then seeded into single channel devices and grown under IF.
All MVN tissues were immunstained and studied for histology and morphology. Quantitative PCR was also performed to measure MMP-2 levels. The effect of a MMP-2 specific inhibitor was also tested in the BBB model to antagonize the effect induced by IF, as observed in MVNs formed with HUVEC monoculture or HUVEC and HLF co-culture.

Chain of MMP-3 (P08254 100-477): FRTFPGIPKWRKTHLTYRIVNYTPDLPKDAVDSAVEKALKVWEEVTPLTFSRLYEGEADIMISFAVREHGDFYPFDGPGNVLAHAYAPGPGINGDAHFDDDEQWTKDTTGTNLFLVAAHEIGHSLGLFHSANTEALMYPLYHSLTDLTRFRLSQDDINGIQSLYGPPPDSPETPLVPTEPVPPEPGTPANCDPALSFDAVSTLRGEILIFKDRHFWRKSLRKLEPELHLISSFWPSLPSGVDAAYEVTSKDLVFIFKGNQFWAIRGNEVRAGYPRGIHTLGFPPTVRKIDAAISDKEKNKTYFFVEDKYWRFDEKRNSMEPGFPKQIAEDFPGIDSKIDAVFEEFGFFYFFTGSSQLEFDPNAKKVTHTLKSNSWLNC
Chain of MMP-9 (P14780 94-707): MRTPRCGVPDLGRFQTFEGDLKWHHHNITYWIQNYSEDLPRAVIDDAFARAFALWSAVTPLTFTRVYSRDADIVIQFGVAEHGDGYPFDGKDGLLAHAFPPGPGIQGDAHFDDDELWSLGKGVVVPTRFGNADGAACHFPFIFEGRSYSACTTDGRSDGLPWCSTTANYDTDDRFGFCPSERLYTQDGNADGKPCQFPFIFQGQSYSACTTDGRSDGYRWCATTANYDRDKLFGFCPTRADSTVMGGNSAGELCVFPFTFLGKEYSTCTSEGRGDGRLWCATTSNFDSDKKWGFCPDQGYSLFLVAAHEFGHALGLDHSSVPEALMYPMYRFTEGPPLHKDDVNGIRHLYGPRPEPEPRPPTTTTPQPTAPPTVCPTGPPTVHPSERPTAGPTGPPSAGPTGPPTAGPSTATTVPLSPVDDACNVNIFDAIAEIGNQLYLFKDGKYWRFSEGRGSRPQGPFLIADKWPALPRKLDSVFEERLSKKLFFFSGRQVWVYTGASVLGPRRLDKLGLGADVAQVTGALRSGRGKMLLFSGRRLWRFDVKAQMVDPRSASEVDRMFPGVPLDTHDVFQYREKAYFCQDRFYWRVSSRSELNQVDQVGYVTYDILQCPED

For `CC(C)ON(CC(=O)NO)S(=O)(=O)c1ccc(-c2ccccc2)cc1` [ARP-100], the IC50 (MMP-1) is given as greater than 50000 nM, the IC50 (MMP-3) is given as 4500 nM and the “perfusability of MVN” value (HUVEC and HLF coculture) is given as “can maintain high perfusability”. For the same compound, the IC50 (MMP-2) was 12 nM, the “MVN morphology (vessel diameter, coverage area, branches)” value (HUVEC monoculture; 10 μM) was “significantly narrower vessels, reduced coverage area and increased branches; also recorded: effectively reduced the average diameter and coverage area of vessels” and the “perfusability of MVN” value (HUVEC monoculture; 10 μM, in comparison with control group) was “perfusability well maintained”. The “perfusion of MVN with dextran dye” value (HUVEC monoculture; 20 μM) was “no vessels can be successfully perfused with dextran dye”, the network structure development (HUVEC monoculture; 50 uM, day 5) was “complete failure in developing network structure” and the “vascular permeability of 40 kD dextran” value [1] was ~10^−8 cm/s. The IC50 (MMP-7) was greater than 50000 nM, the IC50 (MMP-9) was 200 nM and the “BBB network vessel morphology” value ([2]; day 3, 20 uM compared with 10 μM) was “thinner and sparser vessels”. For the same compound, the “BBB network perfusability and morphology” value ([2]; day 6, higher concentration (20 uM)) was “disconnected thin network segments without any perfusable vessels” and the “BBB network perfusability and morphology” value ([2]; day 6, low concentration (10 μM)) was “became perfusable with much thinner vessels compared to untreated ones”.
With plasminogen activator inhibitor-1 the “development of fully perfusable MVN” value (HUVEC monoculture; 100 uM in culture media) was “did not affect the development of fully perfusable MVN”.
With `CNC(=O)[C@@H](NC(=O)[C@H](CC(C)C)[C@H](O)C(=O)NO)C(C)(C)C` [marimast] the vessel formation (HUVEC monoculture; 50 μM, 5 days) was “completely disrupted the vessel formation process”.
For `CCCC(C)NC(=O)c1ccc(Cl)c(Cl)c1` (stereo not drawn) [NSC 405020], the “changes in formed MVN” value (HUVEC monoculture; 50 μM) was “didn't induce any noticeable changes in formed MVN”.
For aprotinin, the “development of fully perfusable MVN” value (HUVEC monoculture; 200 U/ml in culture media) was “did not affect the development of fully perfusable MVN”.

Reference: patent US20220338465A1, “FLUIDIC PLATFORMS FOR PERFUSABLE VASCULARIZED TISSUES” (Massachusetts Institute of Technology, priority 2021, published 2022)
